For one experiment, the target named is T1, Human liver cathepsin D (Homo sapiens, UniProt P07339).
T1 construct: tissue Eurofins Panlabs Discovery Services (ran the assay); host or cells: human liver
Description: Cathepsin D (CTSD) human pepsin aspartic peptidase enzymatic assay (Eurofins Panlabs). The format is biochemical. As to conditions: for Inhibition of CTSD (%): 190 mU/mL enzyme, modified acetate buffer pH 4.0, 15 min preincubation at 37 °C, 20 μM MOCAc substrate for 10 min, spectrofluorimetric read-out, duplicate, N.A. = not active. How it is done: The CTSD-inhibition assay was performed at Eurofins Panlabs Discovery Services by measuring the percentage inhibition at concentrations of 0.5 and 1.0 μM (Table 1).
Human liver cathepsin D was used for the enzymatic essay. Test compound or vehicle was preincubated with 190 mU/mL enzyme in modified acetate buffer pH 4.0 for 15 minutes at 37 °C. The reaction was initiated by addition of 20 μM MOCAc-[…]Dnp)-D-Arg NH2 for another 10-minute incubation period. Determination of the amount of MOCAc formed was read spectrofluorimetrically at 340 nm/400. Compounds were screened at 0.5 and 1.0 μM. Cathepsin-D-Human-Pepsin-Aspartic-Peptidase-Enzymatic-Assay-Panlabs (eurofinsdiscovery.com, accessed on 22 February 2022).

The subject of the next experiment is CTSD. As to conditions: natural izenamides; cited from earlier work. From the text: In 2018, izenamides A-C (1–3), which are linear depsipeptides, were first isolated from the marine cyanobacterium 1605-5 by Suenaga et al (Figure 1). Izenamides A (1) and B (2) contain four amino acids (Pro-O-Me, N-Me-Phe, Ala, and Ile); two α-hydroxy acids (two valic acids for 1, and one valic acid and one isoleucic acid for 2); and a γ-amino-β-hydroxy acid moiety known as statine [(3S,4S)-4-amino-3-hydroxy-6-methylheptanoic acid, Sta]. Izenamide C (3) also contains Pro-O-Me, N-Me-Phe, Ile, and valic acid; however, it contains Gly in place of Ala in 1 and 2, as well as isoleucic acid. ...

T1 sequence (P07339 65-412): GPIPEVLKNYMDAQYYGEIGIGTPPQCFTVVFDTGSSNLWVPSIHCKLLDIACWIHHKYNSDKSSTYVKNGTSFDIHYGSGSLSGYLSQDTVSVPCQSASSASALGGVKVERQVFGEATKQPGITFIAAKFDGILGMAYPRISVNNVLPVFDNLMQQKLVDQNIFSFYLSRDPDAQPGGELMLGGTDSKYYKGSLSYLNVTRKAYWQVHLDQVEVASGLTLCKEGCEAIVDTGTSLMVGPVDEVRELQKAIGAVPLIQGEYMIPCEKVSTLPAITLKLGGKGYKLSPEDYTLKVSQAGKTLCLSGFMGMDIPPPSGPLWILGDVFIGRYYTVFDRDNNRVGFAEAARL

Regarding 18-epi-izenamide B [Compound 8], the “Inhibition of CTSD (%)” value on Human liver cathepsin D (0.5 μM compound) is listed as 37.29%; at Human liver cathepsin D (1.0 μM compound) it was 40.96%.
As for “Sta-incorporated-izenamide C [Compound 7]”, the figures for the “Inhibition of CTSD (%)” value at Human liver cathepsin D (0.5 μM compound) and at Human liver cathepsin D (1.0 μM compound) were 26.99% and 36.07%, respectively.
Turning to izenamide A [Compound 1], the entries for the “Inhibition of CTSD (%)” value at Human liver cathepsin D (0.5 μM compound) and on Human liver cathepsin D (1.0 μM compound) were 10.13% and 15.55%, respectively. Also, in the experiment on CTSD, the “inhibitory activities against CTSD in vitro (in words)” value (“inhibitory activities against CTSD” below) is given as “moderate inhibitory activities”.
For izenamide B [Compound 2], the “Inhibition of CTSD (%)” value on Human liver cathepsin D (0.5 μM compound) was determined as 8.12%; at Human liver cathepsin D (1.0 μM compound), 14.76%. Besides, the “inhibitory activities against CTSD” value in the experiment on CTSD was “moderate inhibitory activities”.
As for izenamide C [Compound 3], the “CTSD-inhibitory activity (in words)” value at Human liver cathepsin D (screened at 0.5 and 1.0 μM) was “no CTSD inhibition”. Besides, in the experiment on CTSD, the “inhibitory activities against CTSD” value is “does not show CTSD inhibition”.

The record behind these values is PMC10223608, “Structural Congeners of Izenamides Responsible for Cathepsin D Inhibition: Insights from Synthesis-Derived Elucidation” (Marine Drugs, 2023).
